# Laboratory results reported in US20070271620A1, “Animal model for type II diabetes mellitus and Syndrome X and methods and uses thereof” (priority 2005, published 2007).
# Values joined by “and” are separate entries in the source; they are usually repeats but may differ in a detail not shown here. Identical values can stand only once. Marks after values point to notes of the source that are not given here.
# What was measured:
# [1] = system: cross-bred pigs (Yorkshire×Landrace); test: Hyperinsulinemic euglycemic/hyperglycemic clamp in STZ diabetic pigs; format: in vivo, pig
# Experimental: Protocol 2: insulin-mediated hepatic glucose production and whole body glucose uptake were studied with the hyperinsulinemic (1 or 2 mU/kg/minute) euglycemic clamp technique in combination with 6,6-^2H-glucose infusion in six normal and seven STZ (130 mg/kg) diabetic pigs.
# Protocol 3: insulin-mediated whole body glucose disposal was studied with the hyperinsulinemic (2 or 8 mU/kg/minute) euglycemic clamp technique in six normal and six STZ (150 mg/kg) diabetic pigs.
# Protocol 4: insulin-mediated whole body glucose disposal under influence of acute mass action of plasma glucose was studied with the hyperinsulinemic (2 mU/kg/minute), euglycemic (6 mmol/L) and hyperglycemic (22 mmol/L) clamp technique in four STZ (110 mg/kg) diabetic pigs.
# After overnight fasting, at t=0 minute, insulin was administered as a prime—(17 or 34 mU/kg) continuous (1 or 2 mU/kg/minute) infusion for three hours in normal pigs. Simultaneously, a variable infusion of a 33% D-glucose solution was started and adjusted every ten minutes to maintain the plasma glucose concentration at euglycemic levels and a 6,6-^2H-glucose solution was given as a prime—(216 mg) continuous (3.6 mg/minute). Steady-state conditions were achieved within 90 minutes after initiation of the hyperinsulinemic clamp and steady-state calculations were carried out during the last hour of the clamp (t=120, 135, 150, 165 and 180 minutes). In hyperglycemic diabetic pigs, insulin was given as a prime—(34 or 136 mU/kg) continuous (2 or 8 mU/kg/minute) infusion for five hours. After reaching euglycemic levels, a variable infusion of a 33% D-glucose solution was started and adjusted every ten minutes to maintain the plasma glucose concentration at euglycemia. At t=2 hours, 6,6-^2H-glucose was administered as a prime— (216 mg) continuous (3.6 mg/minute) infusion for the last three hours of the clamp in diabetic pigs. Steady-state conditions were achieved during the last hour of the clamp and steady-state calculations were carried out at (t=240, 255, 270, 285 and 300 minutes).
# Hyperinsulinemic hyperglycemic clamp experiments were carried out in diabetic pigs only. After overnight fasting, insulin was given as a prime—(34 mU/kg) continuous (2 mU/kg/minute) infusion for five hours. Simultaneously, a variable infusion of a 33% D-glucose solution was started and adjusted every ten minutes to maintain the plasma glucose concentration at hyperglycemia. Steady-state calculations were carried out during the last hour of the clamp (t=240, 255, 270, 285 and 300 minutes).
# 6,6-^2H-glucose kinetics: Fasting and insulin-mediated rate of appearance (Ra) of glucose was calculated by dividing the 6,6-^2H-glucose infusion rate (mg/minute) by the plasma 6,6-^2H-glucose enrichment (mg/mg %). Insulin-mediated hepatic glucose production was calculated as measured Ra glucose minus exogenous glucose infusion rate. Under hyperglycemic conditions, the rate of disappearance (Rd) of glucose, or whole body glucose uptake was corrected for urinary glucose excretion. This implies that whole body glucose uptake was calculated as measured Ra glucose minus urinary glucose excretion.
# [2] = system: cross-bred pigs (Yorkshire×Landrace); test: Induction of diabetes by streptozotocin infusion in pigs: fasting plasma glucose, food intake, urinary glucose and ketones; format: in vivo, pig
# Experimental: Experimental protocols describing the management, surgical procedures, and animal care were reviewed and approved by the ASG-Lelystad Animal Care and Use Committee (Lelystad, NL). Thirty-six cross-bred pigs (Yorkshire×Landrace) of approximately 30 kg BW at surgery were used in this study. Two weeks before surgery, the pigs were housed in metabolism cages (1.15×1.35 m) and adapted to the fight/dark cycle and the feeding regimen. Lights were on and off at 05:00 and 22:00 hours, respectively. Ambient room temperature was 20° C.
# STZ (Pharmacia & Upjohn Company, Kalamazoo, Mich., USA) was dissolved in saline (1 g/10 mL) and administrated to pigs via the jugular vein by a continuous infusion over 30 minutes. STZ treatment (110, 130 or 150 mg/kg) was initiated four to five hours after the morning meal. During the first three days after STZ treatment, food was offered ad libitum in order to avoid hypoglycemia (Gäbel et al., 1985; Grussner et al., 1993). Over the following four days, the food was offered still ad libitum but now from 06:00 to 7:00 and from 15:00 to 16:00 hours to evaluate the food intake capacity in relation to 24-hour urinary glucose excretion of diabetic pigs. This was done first, to be sure that diabetic pigs consume their meals at the iso-energetic level of 1045 kJ ME/kg BW^0.75 per day and second, to underline the importance of iso-energetic feeding when 24-hour urinary glucose excretion is used as one of the parameters to quantify the efficacy of metformin in diabetic pigs. On day 8 post-STZ treatment, pigs were fed on a restricted and iso-energetic level of 1045 kJ ME/kg BW^0.75 per day throughout the study.
# Plasma insulin concentration was measured using a Delfia assay (test kit No. B080-1101 by Perkin Elmer Life Sciences, trust by Wallac Oy, Turku, Finland). This specific pig insulin assay was validated using pig insulin standards. Plasma and urine glucose concentrations were analyzed enzymically on an autoanalyzer of Radiometer (ABL and AML, Copenhagen, Denmark). Urine was collected in buckets containing 0.5 grams Halamid-d (sodium-p-toluenesulfonchloramide, Akzo Nobel Chemicals, Amersfoort, NL) to prevent microbial breakdown of glucose. Urine volume was registered over a given interval in order to calculate the rate of urinary glucose excretion. Urine samples (0.5 mL) were stored at −20° C. for later glucose analyses. Ketones (acetoacetic acid) were determined in fresh urine by a reagent strip test (Ketostix, Bayer Diagnostics, Mijdrecht, NL).
# [3] = pigs, STZ 110 mg/kg, 2 mU/kg/minute clamp at euglycemia
# [4] = pigs, STZ 110 mg/kg, 2 mU/kg/minute clamp at hyperglycemia
# [5] = pigs, STZ 110 mg/kg, clamp at hyperglycemia
# [6] = pigs, STZ 130 mg/kg, insulin clamp 2 mU/kg/minute
# [7] = pigs, STZ 150 mg/kg, insulin clamp 8 mU/kg/minute
smiles,measurement,setting,value
"CN(N=O)C(=O)N[C@H]1C(O)O[C@H](CO)[C@@H](O)[C@@H]1O (mixture of isomers) [STZ, streptozotocin]",Steady-state glucose infusion rate compared to average in normal pigs,"[1]; STZ 150 mg/kg, insulin 8 mU/kg/minute",approximately eight-fold lower
same,Fasting plasma insulin compared to normal and diabetic (1.50 mg STZ/kg) pigs,"[1]; STZ 110 and 130 mg/kg, on average",two-fold higher
same,Steady-state glucose infusion rates compared to average in normal pigs,"[1]; STZ 110 to 130 mg/kg, insulin 2 mU/kg/minute",five- to six-fold lower
same,Reduction in insulin action,[1]; STZ diabetic pigs,~75%
same,"Fasting plasma insulin, range",[1]; diabetic (150 mg STZ/kg) pigs,0-6 mU/L
same,Increase of insulin-mediated whole body glucose disposal at hyperglycemia compared to euglycemia,"[1]; pigs, STZ 110 mg/kg, 2 mU/kg/minute clamp",16%
same,Fasting plasma glucose,[1]; [3],22.3 ± 2.1 mmol/L
same,Steady-state clamp glucose infusion rate (insulin-mediated whole body glucose disposal),[1]; [3],5.1 mg/kg/min and 5.1 ± 1.0 mg/kg/min
same,Steady-state clamp plasma glucose,[1]; [3],6.0 ± 0.1 mmol/L
same,Steady-state clamp plasma insulin,[1]; [3],54 ± 16 mU/L
same,Time to reach euglycemia in diabetic pigs,[1]; [3],139 ± 23 min
same,Fasting plasma glucose,[1]; [4],23.0 ± 2.4 mmol/L
same,Insulin-mediated whole body glucose disposal (glucose infusion rate minus urinary glucose excretion),[1]; [4],5.9 mg/kg/min and 5.9 ± 0.8 mg/kg/min
same,Steady-state clamp glucose infusion rate,[1]; [4],8.2 ± 0.8*^1) mg/kg/minute
same,Steady-state clamp plasma glucose,[1]; [4],22.4 ± 2.6 mmol/L
same,Steady-state clamp plasma insulin,[1]; [4],62 ± 19 mU/L
same,Fasting plasma insulin,"[1]; pigs, STZ 110 mg/kg, clamp at euglycemia",17 ± 13 mU/L
same,Fasting plasma insulin,[1]; [5],12 ± 5 mU/L
same,"Fasting plasma insulin, range",[1]; [5],range (3-21) mU/L
same,"Fasting plasma insulin, range","[1]; pigs, STZ 130 mg/kg",1-38 mU/L
same,Steady-state clamp glucose infusion rate,[1]; [6],5.0 ± 1.4 mg/kg/min
same,Steady-state clamp plasma glucose,[1]; [6],6.1 ± 0.8 mmol/L
same,Steady-state clamp plasma insulin,[1]; [6],45 ± 5 mU/L
same,Time to reach euglycemia in diabetic pigs,[1]; [6],145 ± 22 min
same,Fasting plasma glucose,"[1]; pigs, STZ 130 mg/kg, insulin clamp 2 mU/kg/minute, with 6,6-2H-glucose infusion, mean ± SEM",21.7 ± 1.1 mmol/L
same,Fasting plasma insulin,"[1]; pigs, STZ 130 mg/kg, insulin clamp 2 mU/kg/minute, mean ± SEM",9 mU/L
same,Fasting plasma insulin,"[1]; pigs, STZ 130 mg/kg, insulin clamp 2 mU/kg/minute, mean ± SEM, listed as Streptozotocin",9 ± 7 mU/L
same,"Fasting plasma insulin, range","[1]; pigs, STZ 130 mg/kg, listed as Streptozotocin",range (1-38) mU/L
same,Fasting plasma insulin,[1]; [7],3 ± 1 mU/L
same,Steady-state clamp glucose infusion rate,[1]; [7],3.2 ± 1.0 mg/kg/min
same,Steady-state clamp plasma glucose,[1]; [7],7.5 ± 0.9 mmol/L
same,Steady-state clamp plasma insulin,[1]; [7],228 ± 36 mU/L
same,Time to reach euglycemia in diabetic pigs,[1]; [7],243 ± 21 min
same,Fasting plasma glucose,"[1]; pigs, STZ 150 mg/kg, insulin clamp 8 mU/kg/minute, no tracer",22.0 ± 0.8 mmol/L
same,Overnight fasting plasma glucose compared to normal pigs,"[1]; three diabetic pig groups (STZ 110, 130 and 150 mg/kg), on average",four-fold greater
same,Pigs with overnight fasting plasma glucose <10 mmol/L (no fasting hyperglycemia),"[2]; STZ 110 mg/kg BW, one week post STZ",two of six
same,Diabetic state,[2]; STZ 130 mg/kg,"non-ketotic, moderately dyslipidemic, developed severe insulin resistance for glucose metabolism, maintained growth without insulin therapy"
same,Pigs with fasting hyperglycemia (>10 mmol/L),[2]; STZ 130 mg/kg,20 of 23
same,Pigs with overnight fasting plasma glucose <10 mmol/L,"[2]; STZ 130 mg/kg BW, one week post STZ",three of 23
same,Overnight fasting plasma glucose,"[2]; STZ 150 mg/kg BW, all six pigs, one week post STZ",> 20 mmol/L
same,Diabetic state,"[2]; STZ 150 mg/kg, all pigs","clear hyperglycemic, hypoinsulinemic, and ketotic diabetic state"
same,Fasting urinary glucose excretion (factual),"[2]; STZ diabetic pigs fasted overnight, urine collected for eight hours",2.3 ± 0.2 mg/kg/min and 2.3 mg/kg/min
same,Ketones in urine,"[2]; STZ dose of 110 and 130 mg/kg, trace = 0.5 mmol/L",no or trace
same,Predicted fasting urinary glucose excretion,[2]; from intercept of linear regression and average body weight,2.6 mg/kg/min
same,Fasting 24-hour urinary glucose excretion (intercept of regression),[2]; linear regression y=0.33x+141,141 g per day
